{"source": "patent US11819533B2", "about": "“Compositions and methods for the treatment of fungal infections” (Cidara Therapeutics, Inc., priority 2017, dated 2023)", "key": {"[1]": {"test": "Dropwise addition of CD101 acetate 4 mg/mL solutions to 0.9% saline solution or PBS buffer, observed for drug insolubility", "type": "physicochemical", "procedure": "CD101 acetate 20 mg/kg dose was prepared in w/w in 5% dextrose solution (CD101 acetate at 4 mg/mL solution) for the following solutions using the salt to free base correction factor of 0.8784 for CD101 acetate: […]\n0.5% w/w Tween 80 used. The pH of the solution is 5.21 (22.8 mg CD101 acetate into 5 mL 5% Dextrose with 0.5% w/w Tween 80 (0.1 g Tween 80+19.9 g 5% Dextrose))\n1.0% w/w Tween 80 used. The pH of the solutions is 5.27 (22.9 mg CD101 acetate into 5 mL 5% Dextrose with 1.0% w/w Tween 80 (0.2 g Tween 80+19.8 g 5% Dextrose))\n2.5% w/w Tween 80 used. The pH of the solutions is 5.29 (22.7 mg CD101 acetate into 5 mL 5% Dextrose with 2.5% w/w Tween 80 (0.5 g Tween 80+[…] 5% Dextrose))\n1.0% w/w Tween 80 used. The pH of the solution was adjusted to 6.64 using 0.1 N NaOH. (22.9 mg CD101 acetate into 5 mL 5% Dextrose with 1.0% w/w Tween 80 (0.2 g Tween 80+19.8 g 5% Dextrose))"}, "[2]": {"test": "PBS drop test of CD101 IV formulations (Example 4)", "type": "physicochemical", "conditions": "2 mg/mL in 0.50% Tween 80, 0.76% mannitol, 0.125% sodium lactate in 3.5% dextrose solution, pH ~5.5; 0.25 mL into 1 mL PBS", "procedure": "Solubility of CD101-containing formulations with different percentages of Tween 80 (also referred to as polysorbate 80) was evaluated in a “PBS drop test.” This involved preparing a known concentration of CD101 in a formulation and injecting the formulation into PBS to visually examine for precipitation. This test was used to assess if a CD101-containing formulation would remain soluble in blood during IV infusions.\n(1) 1.25% Tween 80, 5% mannitol, 0.3% glacial acetic acid, pH ˜4.5\n(2) 0.50% Tween 80, 0.76% mannitol, 0.125% sodium lactate in 3.5% dextrose solution, pH ˜5.5\nDifferent concentrations of CD101 acetate were prepared in vehicles (1) and (2) and tested for solubility in the PBS drop test.\nAdd dropwise the formulated solution into PBS solution (1:4 dilution). Visually observe the resulting solution upon addition for any precipitation."}, "Sprague Dawley rats": {"tested_on": "Sprague Dawley rats", "test": "14-day repeat-dose intravenous infusion toxicity study", "type": "in vivo", "conditions": "for Animals that did not receive ten consecutive days of treatment (Days 5-14): females", "procedure": "The primary purpose of this study was to evaluate the toxicity of CD101 when administered intravenously as a 20-minute infusion into the lateral tail vein of Sprague Dawley rats for fourteen consecutive days. A positive control group (Eraxis®) with a similar structure and pharmacodynamic activity was included in the study design.\nThe test article, CD101 acetate, was a white to off-white powder. The test article was prepared into dosing formulations for intravenous dose administration. One hundred experimentally naïve Sprague Dawley rats (50 males and 50 females), a minimum of 8 weeks old and weighing 255-318 grams (males) and 192-215 (females) at the outset of the study were assigned to treatment groups as shown in Table 7 below:\nAll animals were dosed on Days 1 through 3 inclusive. As a result of tail vein irritation observed among all study groups, dose administration was suspended on Day 4 to allow the tails to recover. Dosing resumed on Day 5 and continued for a maximum of ten additional days (Days 5 through 14 inclusive). Animals that could no longer be dosed during this time remained on study.\nMale and female Sprague Dawley rats were to receive CD101 acetate at doses of 0, 2, 6 and 20 mg/kg/day (Groups 1, 3, 4 and 5, respectively) or Eraxis® (the positive control article, Group 2) at a dose of 40 mg/kg/day, intravenously as a 20 minute infusion into the left or right lateral tail vein for fourteen consecutive days. During the first three treatment days, all animals were dosed with the first vehicle used on this study (1.75% Tween 80/5% Dextrose: Groups 1 and 3-5; 5% Dextrose: Group 2). As a result of the localized tail swelling observed during the first three days of treatment, study Day 4 served as a drug-free day to alleviate tail vein irritation. Dose administration resumed on Day 5 using a new vehicle (5% Mannitol/2.5% Tween 80/0.3% acetic acid: Groups 1 and 3-5; 5% Mannitol/0.3% acetic acid: Group 2) for the remainder of the treatment period (Days 5-14). Those animals that could no longer be dosed because of severe vein irritation were retained on study, untreated, until the end of the study (Day 15)."}, "cynomolgus monkeys": {"tested_on": "cynomolgus monkeys", "test": "Single-dose intravenous infusion tolerability study", "type": "in vivo", "procedure": "The objective of this study was to evaluate and compare the tolerability of CD101 when administered once by either a 20-minute or 60-minute intravenous infusion to cynomolgus monkeys. In addition, a vehicle similar to the intended initial clinical formulation was assessed when administered once by 20-minute intravenous infusion up to the highest feasible dose (10 mg/kg).\nThis study was divided into 2 phases (Table 8). In phase 1, CD101 acetate was administered in vehicle-1 (1.25% Tween 80, 5% mannitol, 0.3% glacial acetic acid adjusted to pH 4.5±0.1) as a single 20-minute (±2 minutes) intravenous infusion to 1 animal/sex/group at 0 and 30 mg/kg (Groups 1 and 2, respectively). In addition, CD101 acetate was administered in vehicle-1 as a single 60-minute (±5 minutes) intravenous infusion to 1 animal/sex/group at 0 and 30 mg/kg (Groups 3 and 4, respectively).\nDosing was staggered so that Group 5 was dosed 2 days after Groups 1-4."}, "[3]": {"test": "Dropwise addition of CD101 acetate 4 mg/mL solutions to 0.9% saline solution or PBS buffer, observed for drug insolubility", "type": "physicochemical", "conditions": "4 mg/mL in 5% dextrose and 0.5% Tween 80, pH 5.4"}, "[4]": {"conditions": "4 mg/mL in 5% dextrose and 1.0% Tween 80, adjusted to 6.64 pH using 0.1N NaOH"}, "[5]": {"conditions": "4 mg/mL in 5% dextrose and 1.0% Tween 80, pH 5.3"}, "[6]": {"conditions": "4 mg/mL in 5% dextrose and 2.5% Tween 80, pH 5.3"}}, "note": "“Also recorded” adds a separate entry of the source. Starred links: 1 amine or outer side, 2 acyl side, 3 side chain; linkers in the order of their positions; H or OH if unused. Positions of bridges follow the written chain, without caps; N, C: chain ends. Non-standard residues stand in square brackets, D forms with d. Residues, ends and D or L forms follow the SMILES beside them. *: point of attachment. Orn(4R-OH,5R-OCH2CH2NMe3+) = C[N+](C)(C)CCO[C@@H](N[*:3])[C@H](O)C[C@H](N[*:1])C(=O)[*:2]; pTerphenylCO(4''-OnC5H11) = CCCCCOc1ccc(-c2ccc(-c3ccc(C(=O)*)cc3)cc2)cc1; hTyr(3S-OH,4S-OH) = N[C@H](C(=O)O)[C@H](O)[C@@H](O)c1ccc(O)cc1; Pro(3S-OH,4S-Me) = C[C@H]1CN[C@H](C(=O)O)[C@H]1O; Hyp = O=C(O)[C@@H]1C[C@@H](O)CN1"}
{"compound": "CCCCCOc1ccc(-c2ccc(-c3ccc(C(=O)N[C@H]4C[C@@H](O)[C@@H](OCC[N+](C)(C)C)NC(=O)[C@@H]5[C@@H](O)[C@@H](C)CN5C(=O)[C@H]([C@@H](C)O)NC(=O)[C@H]([C@H](O)[C@@H](O)c5ccc(O)cc5)NC(=O)[C@@H]5C[C@@H](O)CN5C(=O)[C@H]([C@@H](C)O)NC4=O)cc3)cc2)cc1", "note": "[CD101 acetate] ({pTerphenylCO(4''-OnC5H11)}-[Orn(4R-OH,5R-OCH2CH2NMe3+)]T[Hyp][hTyr(3S-OH,4S-OH)]T[Pro(3S-OH,4S-Me)]; lactam 1-C)", "values": [{"measurement": "Appearance after 1.5 mL added to (A) 5 mL 0.9% saline solution", "setting": "[1]; [4]", "result": "Clear"}, {"measurement": "Appearance after 1.5 mL added to (B) 5 mL PBS buffer", "setting": "[1]; [4]", "result": "Clear"}, {"measurement": "Appearance after 1.5 mL added to (A) 5 mL 0.9% saline solution", "setting": "[1]; [5]", "result": "Clear"}, {"measurement": "Appearance after 1.5 mL added to (B) 5 mL PBS buffer", "setting": "[1]; [5]", "result": "Clear"}, {"measurement": "Appearance after 1.5 mL added to (A) 5 mL 0.9% saline solution", "setting": "[1]; [6]", "result": "Clear"}, {"measurement": "Appearance after 1.5 mL added to (B) 5 mL PBS buffer", "setting": "[1]; [6]", "result": "Clear"}, {"measurement": "Time the formulated solution remained soluble in PBS", "setting": "[2]", "result": "at least 1 hour"}, {"measurement": "Incidence of tail vein irritation", "setting": "Sprague Dawley rats; Days 1-3, first vehicle (1.75% Tween 80 and 5% Dextrose for CD101 acetate; 5% Dextrose for Eraxis), Eraxis 40 mg/kg/day, CD101 acetate 6 and 20 mg/kg/day, males and females", "result": "highest"}, {"measurement": "Vein irritation compared to Groups 1, 3 and 4", "setting": "Sprague Dawley rats; Days 5-14, second vehicle (5% Mannitol, 2.5% Tween 80, 0.3% Acetic Acid for CD101 acetate; 5% Mannitol and 0.3% Acetic Acid for Eraxis), Eraxis 40 mg/kg/day, CD101 acetate 20 mg/kg/day", "result": "only marginally higher"}, {"measurement": "Animals that did not receive ten consecutive days of treatment (Days 5-14)", "setting": "Sprague Dawley rats; high dose 20 mg/kg/day (Group 5), second vehicle 5% Mannitol/2.5% Tween 80/0.3% acetic acid", "result": 90, "unit": "%"}, {"measurement": "Animals that did not receive ten consecutive days of treatment (Days 5-14)", "setting": "Sprague Dawley rats; low dose 2 mg/kg/day (Group 3), second vehicle 5% Mannitol/2.5% Tween 80/0.3% acetic acid", "result": 10, "unit": "%"}, {"measurement": "Animals that did not receive ten consecutive days of treatment (Days 5-14)", "setting": "Sprague Dawley rats; mid-dose 6 mg/kg/day (Group 4), second vehicle 5% Mannitol/2.5% Tween 80/0.3% acetic acid", "result": 10, "unit": "%"}, {"measurement": "Animals dosed for less than the intended ten-day duration (Days 5-14) as a result of tail swelling/lesions", "setting": "Sprague Dawley rats; males, high dose 20 mg/kg/day (Group 5), second vehicle 5% Mannitol/2.5% Tween 80/0.3% acetic acid", "result": 30, "unit": "%"}, {"measurement": "Tolerability in vehicle similar to intended clinical formulation", "setting": "cynomolgus monkeys; 10 mg/kg (highest feasible dose), 20-minute IV infusion in vehicle-2 (0.50% Tween 80, 0.76% mannitol, 0.125% sodium lactate in 3.5% dextrose, pH 5.5)", "result": "can be administered safely"}, {"measurement": "Tolerability of 20-minute versus 60-minute infusion", "setting": "cynomolgus monkeys; single IV infusion 30 mg/kg in vehicle-1 (1.25% Tween 80, 5% mannitol, 0.3% glacial acetic acid, pH 4.5)", "result": "no differences that could be attributed to the duration of infusion; also recorded: no differences between the tolerability of a 20-minute and 60-minute infusion"}, {"measurement": "Clinical observations", "setting": "cynomolgus monkeys; single IV infusion, 30 mg/kg in vehicle-1 (20 or 60 min) or 10 mg/kg in vehicle-2 (20 min)", "result": "No other remarkable clinical observations"}, {"measurement": "Appearance after 1.5 mL added to (A) 5 mL 0.9% saline solution", "setting": "[3]", "result": "clear"}]}
